The values that follow come from US20100035858A1, “Novel Compositions and Methods for Binding and Inhibiting 5-HT4 Receptor” (Immune Control, Inc., priority 2008, published 2010).

Data set [1] concerns MDR1-MDCK. The data set can be described thus: MDR1-MDCK Permeability (potential to cross the blood-brain barrier). Conditions: for Brain Penetration Classification: from A-B Papp and efflux ratio.
For data set [2], the system named is B-cell neoplastic cell line RPMI 8226. As to the kind of experiment: Inhibition of proliferation of RPMI cells. The data set is classed as cell-based. The settings on record: RPMI cell viability, FIG. 1. From the text: The next set of experiments was designed to assess compounds that have low levels of brain penetration for the ability of the test compounds to inhibit cellular proliferation. An exemplary in vitro assay is to screen for the ability of the test compounds to inhibit proliferation of the B-cell neoplastic cell line RPMI 8226 (a plasmacytoma derived from a multiple myeloma patient (Matsuoka, et al., 1967, Proc. Soc. Exp. Biol. Med. 125: 1246-1250). However other cell line can be used such as, U266 (established from an IgE-secreting myeloma patient (Nilsson, et al., 1970, Clin. Exp. Immunol., 7: 477-489) and ARH77 (an EBV transformed plasma cell leukemia (Burk, et al., 1978, Cancer Res. 38: 2508-2513).
FIG. 1 is a graph depicting the effects on the test compounds on RPMI cell viability.

Data set [3] has as its system rat model of collagen-induced arthritis. As to the kind of experiment: Rat model of collagen-induced arthritis, ankle diameter. The settings on record: for reduction of ankle diameter: 10 mg/kg ip daily, about 3 days, caliper measurement; for efficacy in reducing ankle diameter compared with Enbrel: rheumatoid arthritis rat model, versus Enbrel. The data set is classed as in vivo. How it is done: The next set of experiments was designed to test the ability of the compounds of the invention on a rat model of collagen-induced arthritis. Briefly, Female Lewis rats were immunized with bovine type 2 collagen 2 mg/mL in 0.01N HAc mixed 1:1 w/ FIA injected id 0.1 mL at each of three sites on back (Rosloniec, E. F., A. H. Kang, L. K. Myers, M. A. Cremer. 1996. Collagen-induced arthritis. R. Coico, and E. Shevach, eds. Current Protocols in Immunology 15.5.1. Weily & Sons, New York.).
FIG. 2 depicts a schematic of the collagen-induced arthritis protocol. Briefly, a test compound of the invention is delivered ip at 10 mg/kg daily, for about 3 days.
FIG. 4 depicts ICI 1260, 1259, 848, 849, 761, 715, and 847 with respect to Enbrel. Additional testing for the effectiveness of compounds ICI 1260, 1259, 848, 849, 761, 715, and 847 at various concentrations (10 mg/kg, 2 mg/kg, 0.4 mg/kg) were conducted, as illustrated in FIGS. 5A-5G. A dose response curve was constructed to illustrate the efficacy of the seven compounds (FIG. 6).

Data set [4] relates to Female Lewis rats. The data set can be described thus: Toxicity in Female Lewis rats. It counts as in vivo. Conditions: 100 mg/kg ip, in comparison with PBS control. Here is the method:
The next set of experiments was designed to determine the toxicity of the compounds. Each compound was administered to Female Lewis rats at a dose of 100 mg/kg via ip administration.

Data set [5] has as its target histamine type 1 receptor (Homo sapiens, UniProt P35367). As to the kind of experiment: Binding to non-5-HT receptors: histamine type 1 receptor. The settings on record: FIG. 12. How it is done:
The methods employed in this study have been adapted from the scientific literature to maximize reliability and reproducibility. Where presented, IC50 values were determined by a non-linear, least squares regression analysis using the DATA ANALYSIS TOOLBOX (MDL Information Systems, San Leandro, Calif., USA). Where inhibition constants (Ki) are presented, the Ki values were calculated using the equation of Cheng and Prusoff (Cheng, Y., Prusoff, W. H., Biochem. Pharmacol. 22:3099-3108, 1973) or equivalent using the observed IC50 of the tested compound, the concentration of ligand employed in the assay, and historical values for the KD of the ligand.
The next set of experiments was designed to assess the selective binding of the test compounds to non-5-HT receptors. The compounds tested are as follows: ICI-735, 848, 849, 1259, and 1260. […] It was also observed that the compounds that bound well to 5-HT4 receptor also bound well to histamine type 1 receptor.

Data set [6] relates to MDR1-MDCK.

“Also recorded” adds a separate entry of the source. Read-outs that look alike come from different tables or passages of the source.

Chain of histamine type 1 receptor (P35367 whole entry): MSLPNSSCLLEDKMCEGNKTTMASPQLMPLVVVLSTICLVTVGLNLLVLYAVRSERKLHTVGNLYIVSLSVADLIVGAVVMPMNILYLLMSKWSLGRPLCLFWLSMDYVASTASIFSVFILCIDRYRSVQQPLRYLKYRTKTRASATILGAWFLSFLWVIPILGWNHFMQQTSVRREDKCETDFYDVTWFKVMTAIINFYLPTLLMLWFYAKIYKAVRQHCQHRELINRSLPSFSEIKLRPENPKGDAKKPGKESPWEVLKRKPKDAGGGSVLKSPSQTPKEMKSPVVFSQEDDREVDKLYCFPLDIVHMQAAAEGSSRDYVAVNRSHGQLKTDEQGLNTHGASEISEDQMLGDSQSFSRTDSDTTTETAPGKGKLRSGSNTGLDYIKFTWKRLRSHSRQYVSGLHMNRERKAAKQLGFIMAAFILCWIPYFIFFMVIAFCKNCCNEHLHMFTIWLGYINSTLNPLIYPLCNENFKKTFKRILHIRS

With `FC(F)(F)c1ccc2c(c1)N(CCCN1CCNCC1)c1ccccc1S2` [ICI-00685], the “Brain Penetration Classification” value in data set [1] was “Low (3) A-B Papp > 3.0 and Efflux Ratio > 10: Low)”.
Regarding `CN(C)S(=O)(=O)c1ccc2c(c1)N(CCCN1CCN(CCN)CC1)c1ccccc1S2` [ICI-00715], the “ability to inhibit proliferation of RPMI cells” value (“ability to inhibit proliferation” for short) in data set [2] is “able to inhibit the proliferation of RPMI cells”. Moreover, in data set [3], the “reduction of ankle diameter” value is “decrease the ankle diameter to a desirable level” and the “efficacy in reducing ankle diameter compared with Enbrel” value (from here on “efficacy in reducing ankle diameter”) is on record as “more effective in reducing the ankle diameter than Enbrel”. The toxicity entry in data set [4] was “not toxic”.
Consider `NCC(=O)NCCN1CCN(CCCN2c3ccccc3Sc3ccc(C(F)(F)F)cc32)CC1` [ICI-00735], for which the “reduction of ankle diameter” value in data set [3] is reported as “did not have a desirable reduction of ankle diameter”. In addition, the “binding to histamine type 1 receptor” value in data set [5] is given as “able to bind histamine type 1 receptor”. Also, in data set [6], the “% Recovery A-B” value is given as 47%, the “% Recovery B-A” value is on record as 33%, the “Papp A-B” value is 0.23 ×10⁻⁶ cm/s and the “Papp B-A” value came out at 28.6 ×10⁻⁶ cm/s. The compound further gave an Efflux in data set [6] (dog) of 124.
Regarding `CN(C)CCN1CCN(CCCN2c3ccccc3Sc3ccc(C(F)(F)F)cc32)CC1` [ICI-00738], in data set [4], the toxicity entry is reported as “not toxic”.
Consider `CNCC(=O)NCCN1CCN(CCCN2c3ccccc3Sc3ccc(C(F)(F)F)cc32)CC1` [ICI-00758], for which, in data set [4], the toxicity result is reported as “not toxic”. Also, the “Brain Penetration Classification” value in data set [1] was “Low (3) A-B Papp > 3.0 and Efflux Ratio > 10: Low)”.
As to `NCCCN1CCN(CCCN2c3ccccc3Sc3ccc(C(F)(F)F)cc32)CC1` [ICI-00760], the “Brain Penetration Classification” value in data set [1] was “Low (3) A-B Papp > 3.0 and Efflux Ratio > 10: Low)”.
In the case of `NCC(N)C(=O)NCCN1CCN(CCCN2c3ccccc3Sc3ccc(C(F)(F)F)cc32)CC1` (centres unmarked) [ICI-761], in data set [2], the “ability to inhibit proliferation” value is given as “able to inhibit the proliferation of RPMI cells”. In addition, in data set [3], the “reduction of ankle diameter” value is “decrease the ankle diameter to a desirable level” and the “efficacy in reducing ankle diameter” value is reported as “more effective in reducing the ankle diameter than Enbrel”.
Consider `NCC(=O)NCCCN1CCN(CCCN2c3ccccc3Sc3ccc(C(F)(F)F)cc32)CC1` [ICI-00822], for which the “Brain Penetration Classification” value in data set [1] is “Low (3) A-B Papp > 3.0 and Efflux Ratio > 10: Low)”.
As to `CNCC(=O)NCCCN1CCN(CCCN2c3ccccc3Sc3ccc(C(F)(F)F)cc32)CC1` [ICI-00823], the “reduction of ankle diameter” value in data set [3] is given as “decrease the ankle diameter to a desirable level”. Also, the toxicity entry in data set [4] is “not toxic”.
On to `FC(F)(F)c1ccc2c(c1)N(CCCC1CCNCC1)c1ccccc1S2` [ICI-00824], for which the toxicity entry in data set [4] is listed as “not toxic”.
Turning to `NCCN1CCC(CCCN2c3ccccc3Sc3ccc(C(F)(F)F)cc32)CC1` [ICI-00846], in data set [1], the “Brain Penetration Classification” value is “Low (3) A-B Papp > 3.0 and Efflux Ratio > 10: Low)”.
With `NCCCN1CCC(CCCN2c3ccccc3Sc3ccc(C(F)(F)F)cc32)CC1` [ICI-00847], the “ability to inhibit proliferation” value in data set [2] (listed as ICI-847) is recorded as “able to inhibit the proliferation of RPMI cells”. Also, in data set [3] (listed as ICI-847), the “reduction of ankle diameter” value is given as “decrease the ankle diameter to a desirable level; also recorded: most desirable reduction of ankle diameter”. Besides, the “efficacy in reducing ankle diameter” value in data set [3] is given as “more effective in reducing the ankle diameter than Enbrel”. Also, the “Brain Penetration Classification” value in data set [1] is “Low (3) A-B Papp > 3.0 and Efflux Ratio > 10: Low)”.
In the case of `CNCC(=O)NCCN1CCC(CCCN2c3ccccc3Sc3ccc(C(F)(F)F)cc32)CC1` [ICI-00849], in data set [2], the “ability to inhibit proliferation” value was “able to inhibit the proliferation of RPMI cells”. Moreover, in data set [3] (listed as ICI-849), the “reduction of ankle diameter” value is reported as “decrease the ankle diameter to a desirable level; also recorded: most desirable reduction of ankle diameter”. In data set [3], the “efficacy in reducing ankle diameter” value is “more effective in reducing the ankle diameter than Enbrel”. Besides, the “binding to histamine type 1 receptor” value in data set [5] is on record as “able to bind histamine type 1 receptor”. In addition, in data set [1], the “Brain Penetration Classification” value was “Low (3) A-B Papp > 3.0 and Efflux Ratio > 10: Low)”.
`CC(=O)NCCN1CCC(CCCN2c3ccccc3Sc3ccc(C(F)(F)F)cc32)CC1` [ICI-00850]: the “Brain Penetration Classification” value in data set [1] was “Low (3) A-B Papp > 3.0 and Efflux Ratio > 10: Low)”.
As for `FC(F)(F)c1ccc2c(c1)N(CCCCN1CCNCC1)c1ccccc1S2` [ICI-00890], the “Brain Penetration Classification” value in data set [1] was “Low (3) A-B Papp > 3.0 and Efflux Ratio > 10: Low)”.
In the case of `N#Cc1ccc2c(c1)N(CCCN1CCN(CCN)CC1)c1ccccc1S2` [ICI-00894], the “Brain Penetration Classification” value in data set [1] is “Low (3) A-B Papp > 3.0 and Efflux Ratio > 10: Low)”.
Regarding `OCCN1CCN(CCCN2c3ccccc3Sc3ccc(C(F)(F)F)cc32)CC1` [ICI-01175, fluphenazine, reference compound], in data set [1], the “Brain Penetration Classification” value was “High (1) A-B Papp > 3.0 and Efflux Ratio < 3.0: High)”.
Turning to `OCCN1CCN(CCCN2c3ccccc3Sc3ccc(C(F)(F)F)cc32)CC1` [ICI-01176], in data set [1] (MDR1-MDCK, A-B direction), the “% Recovery A-B” value came to 35% and the “Papp A-B” value is 0.78 ×10⁻⁶ cm/s. For the same compound, in data set [1] (MDR1-MDCK, B-A direction), the “% Recovery B-A” value is listed as 55% and the “Papp B-A” value was 34.2 ×10⁻⁶ cm/s. The Efflux in data set [1] (MDR1-MDCK, efflux ratio) is reported as 44. Also, the “Brain Penetration Classification” value in data set [1] is “Low (3) A-B Papp > 3.0 and Efflux Ratio > 10: Low)”.
For `CN(C)CCCN1CCC(CCCN2c3ccccc3Sc3ccc(C(F)(F)F)cc32)CC1` [ICI-01505], the “Brain Penetration Classification” value in data set [1] is “Low (3) A-B Papp > 3.0 and Efflux Ratio > 10: Low)”.
